Tested on: 596521-263-R-J1-PDC complex spheroids, viability % of control
Test: Anticancer human tumor 596521-263-R-J1-PDC patient-derived soft tissue sarcoma cell line growth inhibition [GQUAD]
Details: for IC50: curve of first compound; for viability, T/C: stronger effect = lower value
Summary of the method: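 Viability of tumor cells grown as complex spheroids with endothelial and stromal cells, exposed to drug combinations. Top concentration at or near clinical Cmax (else 10 microM), diluted in half-log increments.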

[1] = second compound 0.0316 µM, first compound 0.0316 µM
[2] = second compound 0.0316 µM, first compound 0.316 µM
[3] = second compound 0.1 µM, first compound 0.0316 µM
[4] = second compound 0.1 µM, first compound 0.316 µM
[5] = second compound 0.316 µM, first compound 0.0316 µM
[6] = second compound 0.316 µM, first compound 0.316 µM
[7] = second compound 1 µM, first compound 0.0316 µM
[8] = second compound 1 µM, first compound 0.316 µM
[9] = second compound 3.16 µM, first compound 0.0316 µM
[10] = second compound 3.16 µM, first compound 0.316 µM
[11] = second compound 10 µM, first compound 0.0316 µM
[12] = second compound 10 µM, first compound 0.316 µM
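Note: spheroids exposed to drugs for 7 days before viability reading.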
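Throughout, for viability, T/C: 100% = DMSO vehicle control viability.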

For Cc1cccc(N(C)C(=O)C2C(O)CCN2c2nc(C)cc(C(F)(F)F)c2C#N)c1 (centres undefined) + Cc1cnc(CNC(=O)c2c(=O)c3ccc(N4CCCN(C)CC4)nc3n3c2sc2ccccc23)cn1, the IC50 (second compound 0.0316 µM) was > 10000 nM, the IC50 (second compound 0.1 µM) was > 10000 nM and the IC50 (second compound 0.316 µM) was > 10000 nM. For the same compound, the IC50 (second compound 1 µM) was > 10000 nM, the IC50 (second compound 3.16 µM) was > 10000 nM and the IC50 (second compound 10 µM) was 3380 nM. The viability, T/C [1] was 123%, the viability, T/C (second compound 0.0316 µM, first compound 0.1 µM) was 98.5% and the viability, T/C [2] was 106%. For the same compound, the viability, T/C (second compound 0.0316 µM, first compound 1 µM) was 98.5%, the viability, T/C (second compound 0.0316 µM, first compound 3.16 µM) was 104% and the viability, T/C (second compound 0.0316 µM, first compound 10 µM) was 99.3%. It also gave a viability, T/C [3] of 87%, a viability, T/C (second compound 0.1 µM, first compound 0.1 µM) of 87% and a viability, T/C [4] of 93.8%. The viability, T/C (second compound 0.1 µM, first compound 1 µM) was 92.4%, the viability, T/C (second compound 0.1 µM, first compound 3.16 µM) was 86.3% and the viability, T/C (second compound 0.1 µM, first compound 10 µM) was 90.9%. For the same compound, the viability, T/C [5] was 74.5%, the viability, T/C (second compound 0.316 µM, first compound 0.1 µM) was 77.9% and the viability, T/C [6] was 81.7%. The viability, T/C (second compound 0.316 µM, first compound 1 µM) was 80.6%, the viability, T/C (second compound 0.316 µM, first compound 3.16 µM) was 85.4% and the viability, T/C (second compound 0.316 µM, first compound 10 µM) was 80.6%. For the same compound, the viability, T/C [7] was 63.1%, the viability, T/C (second compound 1 µM, first compound 0.1 µM) was 70.7% and the viability, T/C [8] was 60.7%. For the same compound, the viability, T/C (second compound 1 µM, first compound 1 µM) was 64.7%, the viability, T/C (second compound 1 µM, first compound 3.16 µM) was 68.5% and the viability, T/C (second compound 1 µM, first compound 10 µM) was 66.3%. It also gave a viability, T/C [9] of 64.6%, a viability, T/C (second compound 3.16 µM, first compound 0.1 µM) of 57.9% and a viability, T/C [10] of 62%. It also gave a viability, T/C (second compound 3.16 µM, first compound 1 µM) of 52.1%, a viability, T/C (second compound 3.16 µM, first compound 3.16 µM) of 59% and a viability, T/C (second compound 3.16 µM, first compound 10 µM) of 54.4%. The viability, T/C [11] was 50.7%, the viability, T/C (second compound 10 µM, first compound 0.1 µM) was 49.8% and the viability, T/C [12] was 49.3%. The viability, T/C (second compound 10 µM, first compound 1 µM) was 51.8%, the viability, T/C (second compound 10 µM, first compound 3.16 µM) was 51% and the viability, T/C (second compound 10 µM, first compound 10 µM) was 41.8%.
Cn1ncnc1[C@H]1c2n[nH]c(=O)c3cc(F)cc(c23)N[C@@H]1c1ccc(F)cc1 + Cc1cnc(CNC(=O)c2c(=O)c3ccc(N4CCCN(C)CC4)nc3n3c2sc2ccccc23)cn1 was tested, and the IC50 (second compound 0.0316 µM) was > 316 nM, the IC50 (second compound 0.1 µM) was > 316 nM and the IC50 (second compound 0.316 µM) was > 316 nM. The IC50 (second compound 1 µM) was > 316 nM, the IC50 (second compound 3.16 µM) was > 316 nM and the IC50 (second compound 10 µM) was 103 nM. It also gave a viability, T/C (second compound 0.0316 µM, first compound 0.000999 µM) of 108%, a viability, T/C (second compound 0.0316 µM, first compound 0.00316 µM) of 83.4% and a viability, T/C (second compound 0.0316 µM, first compound 0.00999 µM) of 94.5%. For the same compound, the viability, T/C [1] was 90.2%, the viability, T/C (second compound 0.0316 µM, first compound 0.0999 µM) was 90.2% and the viability, T/C [2] was 71.2%. For the same compound, the viability, T/C (second compound 0.1 µM, first compound 0.000999 µM) was 88.5%, the viability, T/C (second compound 0.1 µM, first compound 0.00316 µM) was 84% and the viability, T/C (second compound 0.1 µM, first compound 0.00999 µM) was 72.3%. The viability, T/C [3] was 81.2%, the viability, T/C (second compound 0.1 µM, first compound 0.0999 µM) was 74.6% and the viability, T/C [4] was 64.7%. It also gave a viability, T/C (second compound 0.316 µM, first compound 0.000999 µM) of 81.3%, a viability, T/C (second compound 0.316 µM, first compound 0.00316 µM) of 71.1% and a viability, T/C (second compound 0.316 µM, first compound 0.00999 µM) of 86.4%. The viability, T/C [5] was 68.5%, the viability, T/C (second compound 0.316 µM, first compound 0.0999 µM) was 76% and the viability, T/C [6] was 65.9%. It also gave a viability, T/C (second compound 1 µM, first compound 0.000999 µM) of 74.1%, a viability, T/C (second compound 1 µM, first compound 0.00316 µM) of 66.2% and a viability, T/C (second compound 1 µM, first compound 0.00999 µM) of 60.5%. It also gave a viability, T/C [7] of 53.7%, a viability, T/C (second compound 1 µM, first compound 0.0999 µM) of 60% and a viability, T/C [8] of 59.7%. It also gave a viability, T/C (second compound 3.16 µM, first compound 0.000999 µM) of 55.9%, a viability, T/C (second compound 3.16 µM, first compound 0.00316 µM) of 56.4% and a viability, T/C (second compound 3.16 µM, first compound 0.00999 µM) of 54%. For the same compound, the viability, T/C [9] was 55.7%, the viability, T/C (second compound 3.16 µM, first compound 0.0999 µM) was 56.5% and the viability, T/C [10] was 53%. It also gave a viability, T/C (second compound 10 µM, first compound 0.000999 µM) of 52.9%, a viability, T/C (second compound 10 µM, first compound 0.00316 µM) of 40.3% and a viability, T/C (second compound 10 µM, first compound 0.00999 µM) of 56.2%. It also gave a viability, T/C [11] of 50.1%, a viability, T/C (second compound 10 µM, first compound 0.0999 µM) of 52.8% and a viability, T/C [12] of 32.2%.

From PubChem BioAssay AID2060500 (Molecular Pharmacology Branch, DTP, NCI, 2025)
